# Measured values published in PubChem BioAssay AID246 (DTP/NCI, 2004).
# Where “and” joins values, the source holds several entries; their conditions need not be identical. Equal entries are not always repeated. Inconclusive results and toxic doses are left out.
# System: BDF1 mice, P1081 chloroleukemia ip, survival T/C
# Experiment: NCI In Vivo Anticancer Drug Screen. Data for tumor model P1081 Chloroleukemia (intraperitoneal) in B6D2F1 (BDF1) mice
# Conditions: endpoint: mean survival time, higher = longer survival
# Experimental: The antitumor activity of compounds was measured in mice bearing transplantable tumors. Survival or tumor size were measured and the results are expressed as the measurement made in the treated group (T) divided by the measurement made in the vehicle treated control group (C). The tumor model used in this assay is P1081 Chloroleukemia (intraperitoneal) in B6D2F1 (BDF1) mice
# [1] = dose: 62.5 mg/kg/injection, schedule: Q01DX Z (ip), vehicle: carboxymethylcellulose (CMC)
# [2] = dose: 12.5 mg/kg/injection, schedule: Q01DX Z (ip), vehicle: carboxymethylcellulose (CMC)
# [3] = dose: 25.0 mg/kg/injection, schedule: Q01DX Z (ip), vehicle: carboxymethylcellulose (CMC)
# [4] = dose: 6.25 mg/kg/injection, schedule: Q01DX Z (ip), vehicle: carboxymethylcellulose (CMC)
# [5] = dose: 10.0 mg/kg/injection, schedule: Q01DX010 (ip), vehicle: saline
# [6] = dose: 20.0 mg/kg/injection, schedule: Q01DX010 (ip), vehicle: saline
# [7] = dose: 50.0 mg/kg/injection, schedule: Q01DX Z (ip), vehicle: carboxymethylcellulose (CMC)
# [8] = dose: 100.0 mg/kg/injection, schedule: Q01DX Z (ip), vehicle: carboxymethylcellulose (CMC)
# [9] = dose: 25.0 mg/kg/injection, schedule: Q01DX Z (ip), vehicle: water
# [10] = dose: 5.0 mg/kg/injection, schedule: Q01DX010 (ip), vehicle: saline
# [11] = dose: 40.0 mg/kg/injection, schedule: Q01DX010 (ip), vehicle: saline
compound,measurement,setting,value
O=c1[nH]c(=O)n(C2CC(O)C(CO)O2)cc1I (configuration not stated),T/C,[1],103 % of control
same,T/C,"dose: 125.0 mg/kg/injection, schedule: Q01DX Z (ip), vehicle: carboxymethylcellulose (CMC)",108 % of control
same,T/C,"dose: 250.0 mg/kg/injection, schedule: Q01DX Z (ip), vehicle: carboxymethylcellulose (CMC)",118 % of control and 92 % of control
same,T/C,"dose: 500.0 mg/kg/injection, schedule: Q01DX Z (ip), vehicle: carboxymethylcellulose (CMC)",114 % of control
CN(Cc1cnc2nc(N)nc(N)c2n1)c1c(Cl)cc(C(=O)NC(CCC(=O)O)C(=O)O)cc1Cl (configuration not stated),T/C,[2],101 % of control
same,T/C,[3],102 % of control
N=C(N)c1ccc(Nc2ccc(C(=N)N)cc2)cc1,T/C,"dose: 0.8 mg/kg/injection, schedule: Q01DX Z (ip), vehicle: methylcellulose (MC)",95 % of control
same,T/C,"dose: 1.6 mg/kg/injection, schedule: Q01DX Z (ip), vehicle: methylcellulose (MC)",107 % of control
same,T/C,"dose: 3.0 mg/kg/injection, schedule: Q01DX010 (ip), vehicle: saline",111 % of control
same,T/C,"dose: 3.1 mg/kg/injection, schedule: Q01DX Z (ip), vehicle: methylcellulose (MC)",96 % of control and 103 % of control
same,T/C,"dose: 6.0 mg/kg/injection, schedule: Q01DX010 (ip), vehicle: saline",100 % of control
same,T/C,"dose: 6.3 mg/kg/injection, schedule: Q01DX Z (ip), vehicle: methylcellulose (MC)",99 % of control
same,T/C,"dose: 12.0 mg/kg/injection, schedule: Q01DX010 (ip), vehicle: saline",100 % of control
same,T/C,"dose: 12.5 mg/kg/injection, schedule: Q01DX Z (ip), vehicle: methylcellulose (MC)",98 % of control
Cn1c(N)nc2nc[nH]c2c1=S,T/C,"dose: 1.6 mg/kg/injection, schedule: Q01DX Z (ip), vehicle: carboxymethylcellulose (CMC)",92 % of control
same,T/C,"dose: 3.1 mg/kg/injection, schedule: Q01DX Z (ip), vehicle: carboxymethylcellulose (CMC)",95 % of control
same,T/C,[4],95 % of control and 98 % of control
same,T/C,[5],120 % of control and 100 % of control
same,T/C,[2],96 % of control and 102 % of control
same,T/C,[6],105 % of control
same,T/C,[3],96 % of control and 100 % of control and 105 % of control
same,T/C,[7],98 % of control and 104 % of control
same,T/C,[8],98 % of control and 102 % of control
CN(C)c1ccc(/C=C\c2ccnc3ccccc23)cc1,T/C,"dose: 0.4 mg/kg/injection, schedule: Q01DX Z (ip), vehicle: water",87 % of control
same,T/C,"dose: 0.8 mg/kg/injection, schedule: Q01DX Z (ip), vehicle: water",99 % of control
same,T/C,"dose: 1.6 mg/kg/injection, schedule: Q01DX Z (ip), vehicle: water",108 % of control and 122 % of control
same,T/C,"dose: 3.1 mg/kg/injection, schedule: Q01DX Z (ip), vehicle: water",99 % of control and 105 % of control
same,T/C,"dose: 6.25 mg/kg/injection, schedule: Q01DX Z (ip), vehicle: water",90 % of control and 94 % of control
same,T/C,"dose: 6.3 mg/kg/injection, schedule: Q01DX Z (ip), vehicle: water",118 % of control and 120 % of control
same,T/C,"dose: 12.5 mg/kg/injection, schedule: Q01DX Z (ip), vehicle: water",112 % of control and 94 % of control and 105 % of control
same,T/C,[9],118 % of control and 88 % of control and 90 % of control
Cc1cc(N(CCCl)CCCl)ccc1N=Nc1ccccc1C(=O)O,T/C,[10],105 % of control
same,T/C,"dose: 7.5 mg/kg/injection, schedule: Q01DX Z (ip), vehicle: carboxymethylcellulose (CMC)",101 % of control
same,T/C,[5],110 % of control and 95 % of control
same,T/C,"dose: 15.0 mg/kg/injection, schedule: Q01DX Z (ip), vehicle: carboxymethylcellulose (CMC)",104 % of control
same,T/C,[6],110 % of control and 90 % of control
same,T/C,"dose: 30.0 mg/kg/injection, schedule: Q01DX Z (ip), vehicle: carboxymethylcellulose (CMC)",104 % of control
same,T/C,[11],110 % of control
COc1cc(-c2ccc(Nc3ccccc3C(=O)O)c(OC)c2)ccc1Nc1ccccc1C(=O)O,T/C,"dose: 12.5 mg/kg/injection, schedule: Q01DX010 (ip), vehicle: saline",116 % of control
same,T/C,"dose: 25.0 mg/kg/injection, schedule: Q01DX010 (ip), vehicle: saline",122 % of control
CN(C)c1ccc(Nc2c3ccccc3nc3ccccc23)cc1,T/C,[4],101 % of control
same,T/C,[2],88 % of control
same,T/C,[3],90 % of control
same,T/C,"dose: 36.0 mg/kg/injection, schedule: Q01DX010 (ip), vehicle: saline",104 % of control
same,T/C,[7],95 % of control
same,T/C,[8],103 % of control
CN(C)c1nc(N(C)C)nc(N(C)C)n1,T/C,"dose: 16.0 mg/kg/injection, schedule: Q01DX Z (ip), vehicle: carboxymethylcellulose (CMC)",95 % of control
same,T/C,"dose: 18.8 mg/kg/injection, schedule: Q01DX010 (ip), vehicle: saline",116 % of control and 100 % of control
same,T/C,"dose: 31.0 mg/kg/injection, schedule: Q01DX Z (ip), vehicle: carboxymethylcellulose (CMC)",92 % of control
same,T/C,"dose: 37.5 mg/kg/injection, schedule: Q01DX010 (ip), vehicle: saline",116 % of control and 100 % of control
same,T/C,[1],88 % of control
same,T/C,"dose: 63.0 mg/kg/injection, schedule: Q01DX Z (ip), vehicle: carboxymethylcellulose (CMC)",123 % of control
same,T/C,"dose: 75.0 mg/kg/injection, schedule: Q01DX010 (ip), vehicle: saline",116 % of control and 105 % of control
same,T/C,"dose: 150.0 mg/kg/injection, schedule: Q01DX010 (ip), vehicle: saline",111 % of control and 100 % of control
O=c1cnn(C2OC(CO)C(O)C2O)c(=O)[nH]1 (configuration not stated),T/C,"dose: 62.5 mg/kg/injection, schedule: Q01DX Z (ip), vehicle: water",94 % of control
same,T/C,"dose: 125.0 mg/kg/injection, schedule: Q01DX Z (ip), vehicle: water",120 % of control and 90 % of control
same,T/C,"dose: 250.0 mg/kg/injection, schedule: Q01DX Z (ip), vehicle: water",116 % of control and 121 % of control
same,T/C,"dose: 500.0 mg/kg/injection, schedule: Q01DX Z (ip), vehicle: water",120 % of control
same,T/C,"dose: 1000.0 mg/kg/injection, schedule: Q01DX Z (ip), vehicle: water",92 % of control
same,T/C,"dose: 1600.0 mg/kg/injection, schedule: Q01DX010 (ip), vehicle: saline",100 % of control
CN(C)CC(=O)c1ccc(O)c(O)c1,T/C,"dose: 16.0 mg/kg/injection, schedule: Q01DX Z (ip), vehicle: saline",114 % of control
same,T/C,"dose: 31.0 mg/kg/injection, schedule: Q01DX Z (ip), vehicle: saline",112 % of control
same,T/C,"dose: 62.0 mg/kg/injection, schedule: Q01DX Z (ip), vehicle: saline",118 % of control
same,T/C,"dose: 125.0 mg/kg/injection, schedule: Q01DX Z (ip), vehicle: saline",115 % of control
C[C@@H]1C[C@H]2CC[C@H](O2)[C@H](C)C(=O)O[C@@H](C)C[C@@H]2CC[C@@H](O2)[C@@H](C)C(=O)O[C@H](C)C[C@H]2CC[C@H](O2)[C@H](C)C(=O)O[C@@H](C)C[C@@H]2CC[C@@H](O2)[C@@H](C)C(=O)O1,T/C,[3],107 % of control
same,T/C,[7],109 % of control
same,T/C,[8],100 % of control
same,T/C,"dose: 200.0 mg/kg/injection, schedule: Q01DX Z (ip), vehicle: carboxymethylcellulose (CMC)",93 % of control
C[C@@H]1C[C@@H]([C@H](O)CC2CC(=O)NC(=O)C2)C(=O)[C@@H](C)C1,T/C,"dose: 0.39 mg/kg/injection, schedule: Q01DX Z (ip), vehicle: water",89 % of control
same,T/C,"dose: 3.12 mg/kg/injection, schedule: Q01DX Z (ip), vehicle: water",102 % of control
same,T/C,[10],86 % of control and 100 % of control
same,T/C,[5],110 % of control and 100 % of control
same,T/C,[6],115 % of control and 100 % of control
same,T/C,[9],93 % of control
same,T/C,[11],90 % of control
COC12C(COC(N)=O)C3=C(C(=O)C(C)=C(N)C3=O)N1CC1C2N1C (configuration not stated),T/C,"dose: 0.63 mg/kg/injection, schedule: Q01DX Z (ip), vehicle: carboxymethylcellulose (CMC)",123 % of control
same,T/C,"dose: 1.25 mg/kg/injection, schedule: Q01DX Z (ip), vehicle: carboxymethylcellulose (CMC)",107 % of control
same,T/C,"dose: 2.5 mg/kg/injection, schedule: Q01DX Z (ip), vehicle: carboxymethylcellulose (CMC)",112 % of control
same,T/C,"dose: 5.0 mg/kg/injection, schedule: Q01DX Z (ip), vehicle: carboxymethylcellulose (CMC)",152 % of control
COc1cc2c(c(OC)c1OC)-c1ccc(N)c(=O)cc1[C@@H](NC(C)=O)CC2,T/C,"dose: 0.5 mg/kg/injection, schedule: Q01DX010 (ip), vehicle: saline",177 % of control
same,T/C,"dose: 1.0 mg/kg/injection, schedule: Q01DX010 (ip), vehicle: saline",188 % of control and 250 % of control
same,T/C,"dose: 2.0 mg/kg/injection, schedule: Q01DX010 (ip), vehicle: saline",100 % of control
